Assays:
Phakopsora pachyrhizi = assay: Fungicidal activity against Phakopsora pachyrhizi / soybean / leaf disc preventative (Asian soybean rust); assay type: in vivo; settings: foliar, 200 ppm in the applied formulation, soybean leaf disks, preventative (inoculated one day after application), assessed 12 to 14 days after application, read-out: disease control compared to untreated control leaf disks
Protocol: (§1) Leaf disks or leaf segments of various plant species are cut from plants grown in a greenhouse. The cut leaf disks or segments are placed in multiwell plates (24-well format) onto water agar. The leaf disks are sprayed with a test solution before (preventative) or after (curative) inoculation. Compounds to be tested are prepared as DMSO solutions (max. 10 mg/ml) which are diluted to the appropriate concentration with 0.025% Tween20 just before spraying. The inoculated leaf disks or segments are incubated under defined conditions (temperature, relative humidity, light, etc.) according to the respective test system. A single evaluation of disease level is carried out 3 to 14 days after inoculation, depending on the pathosystem. Percent disease control relative to the untreated check leaf disks or segments is then calculated. General Examples of Liquid Culture Tests in Well Plates:
Example 3: Fungicidal Activity Against Phakopsora pachyrhizi/Soybean/Leaf Disc Preventative (Asian Soybean Rust)
Soybean leaf disks are placed on water agar in multiwell plates (24-well format) and sprayed with the formulated test compound diluted in water. One day after application leaf discs are inoculated by spraying a spore suspension on the lower leaf surface. After an incubation period in a climate cabinet of 24-36 hours in darkness at 20° C. and 75% rh leaf disc are kept at 20° C. with 12 h light/day and 75% rh. The activity of a compound is assessed as percent disease control compared to untreated when an appropriate level of disease damage appears in untreated check leaf disks (12 to 14 days after application).
(§2) The following compounds at 200 ppm in the applied formulation give at least 80% disease control in this test when compared to untreated control leaf disks under the same conditions, which show extensive disease development.

[1] = system: Puccinia recondita f. sp. tritici; assay: Fungicidal activity against Puccinia recondita f. sp. tritici / wheat / leaf disc curative (brown rust); assay type: in vivo; settings: foliar, 200 ppm in the applied formulation, wheat leaf segments cv. Kanzler, curative (applied 1 day after inoculation), assessed 6 to 8 days after application, read-out: disease control compared to untreated control leaf disks
Protocol: as §1
Example 2: Fungicidal Activity Against Puccinia recondita f. sp. Tritici/Wheat/Leaf Disc Curative (Brown Rust)
Wheat leaf segments cv. Kanzler are placed on agar in multiwell plates (24-well format). The leaf segments are then inoculated with a spore suspension of the fungus. Plates were stored in darkness at 19° C. and 75% relative humidity. The formulated test compound diluted in water was applied 1 day after inoculation. The leaf segments were incubated at 19° C. and 75% relative humidity under a light regime of 12 hours light/12 hours darkness in a climate cabinet and the activity of a compound was assessed as percent disease control compared to untreated when an appropriate level of disease damage appears in untreated check leaf segments (6 to 8 days after application).
as §2

[2] = system: Glomerella laqenarium (Colletotrichum lagenarium); assay: Fungicidal activity against Glomerella lagenarium (Colletotrichum lagenarium) liquid culture / cucumber / preventative (anthracnose); assay type: cell-based; settings: Colletotrichum orbiculare; 20 ppm in the applied formulation; liquid culture in PDB, 24° C., 3 to 4 days after application; read-out: disease control compared to untreated control (inhibition of growth measured photometrically)
Protocol: Mycelia fragments or conidia suspensions of a fungus prepared either freshly from liquid cultures of the fungus or from cryogenic storage, are directly mixed into nutrient broth. DMSO solutions of the test compound (max. 10 mg/ml) are diluted with 0.025% Tween20 by a factor of 50 and 10 μl of this solution is pipetted into a microtiter plate (96-well format). The nutrient broth containing the fungal spores/mycelia fragments is then added to give an end concentration of the tested compound. The test plates are incubated in the dark at 24° C. and 96% relative humidity. The inhibition of fungal growth is determined photometrically after 2 to 7 days, depending on the pathosystem, and percent antifungal activity relative to the untreated check is calculated.
Example 4: Fungicidal Activity Against Glomerella laqenarium (Colletotrichum lagenarium) Liquid Culture/Cucumber/Preventative (Anthracnose)
Conidia of the fungus from cryogenic storage are directly mixed into nutrient broth (PDB—potato dextrose broth). After placing a (DMSO) solution of test compound into a microtiter plate (96-well format), the nutrient broth containing the fungal spores is added. The test plates are incubated at 24° C. and the inhibition of growth is measured photometrically 3 to 4 days after application.
The following compounds at 20 ppm in the applied formulation give at least 80% disease control in this test when compared to untreated control under the same conditions, which show extensive disease development.

[3] = system: Puccinia recondita f. sp. tritici; assay: Fungicidal activity against Puccinia recondita f. sp. tritici / wheat / leaf disc preventative (brown rust); assay type: in vivo; settings: foliar, 200 ppm in the applied formulation, wheat leaf segments cv. Kanzler, preventative (inoculated 1 day after application), assessed 7 to 9 days after application, read-out: disease control compared to untreated control leaf disks
Protocol: as §1
Example 1: Fungicidal Activity Against Puccinia recondita f. sp. tritici/Wheat/Leaf Disc Preventative (Brown Rust)
Wheat leaf segments cv. Kanzler were placed on agar in multiwell plates (24-well format) and sprayed with the formulated test compound diluted in water. The leaf disks were inoculated with a spore suspension of the fungus 1 day after application. The inoculated leaf segments were incubated at 19C and 75% relative humidity (rh) under a light regime of 12 hours light/12 hours darkness in a climate cabinet and the activity of a compound was assessed as percent disease control compared to untreated when an appropriate level of disease damage appears in untreated check leaf segments (7 to 9 days after application).
as §2

CCN(CC)C(=O)c1ccc(-c2noc(C(F)(F)F)n2)cc1 [Compound 3a.30, N,N-diethyl-4-[5-(trifluoromethyl)-1,2,4-oxadiazol-3-yl]benzamide]
≥ 80%: pest or weed control at 200 ppm (Phakopsora pachyrhizi) | pest or weed control at 200 ppm [1] | inhibition at 20 ppm [2] | pest or weed control at 200 ppm [3]

C=C(C)CN(CC)C(=O)c1ccc(-c2noc(C(F)(F)F)n2)cc1 [Compound 3a.31, N-ethyl-N-(2-methylallyl)-4-[5-(trifluoromethyl)-1,2,4-oxadiazol-3-yl]benzamide]
≥ 80%: pest or weed control at 200 ppm (Phakopsora pachyrhizi) | pest or weed control at 200 ppm [1] | inhibition at 20 ppm [2] | pest or weed control at 200 ppm [3]

CC(C)(C)NC(=O)c1ccc(-c2noc(C(F)(F)F)n2)cc1 [Compound 3a.32, N-tert-butyl-4-[5-(trifluoromethyl)-1,2,4-oxadiazol-3-yl]benzamide]
≥ 80%: pest or weed control at 200 ppm (Phakopsora pachyrhizi) | pest or weed control at 200 ppm [1] | inhibition at 20 ppm [2] | pest or weed control at 200 ppm [3]

CCCN(C)C(=O)c1ccc(-c2noc(C(F)(F)F)n2)cc1 [Compound 3a.33, N-methyl-N-propyl-4-[5-(trifluoromethyl)-1,2,4-oxadiazol-3-yl]benzamide]
≥ 80%: pest or weed control at 200 ppm (Phakopsora pachyrhizi) | pest or weed control at 200 ppm [1] | inhibition at 20 ppm [2] | pest or weed control at 200 ppm [3]

CCN(C(=O)c1ccc(-c2noc(C(F)(F)F)n2)cc1)C(C)C [Compound 3a.34, N-ethyl-N-isopropyl-4-[5-(trifluoromethyl)-1,2,4-oxadiazol-3-yl]benzamide]
≥ 80%: pest or weed control at 200 ppm (Phakopsora pachyrhizi) | pest or weed control at 200 ppm [1] | inhibition at 20 ppm [2] | pest or weed control at 200 ppm [3]

CN(C(=O)c1ccc(-c2noc(C(F)(F)F)n2)cc1)C(C)(C)C [Compound 3a.35, N-tert-butyl-N-methyl-4-[5-(trifluoromethyl) 1,2,4-oxadiazol-3-yl]benzamide]
≥ 80%: pest or weed control at 200 ppm (Phakopsora pachyrhizi) | pest or weed control at 200 ppm [1] | inhibition at 20 ppm [2] | pest or weed control at 200 ppm [3]

CCCCN(C)C(=O)c1ccc(-c2noc(C(F)(F)F)n2)cc1 [Compound 3a.36, N-butyl-N-methyl-4-[5-(trifluoromethyl)-1,2,4-oxadiazol-3-yl]benzamide]
≥ 80%: pest or weed control at 200 ppm (Phakopsora pachyrhizi) | pest or weed control at 200 ppm [1] | inhibition at 20 ppm [2] | pest or weed control at 200 ppm [3]

COCC(C)NC(=O)c1ccc(-c2noc(C(F)(F)F)n2)cc1 (stereo not shown) [Compound 3a.37, N-(2-methoxy-1-methyl-ethyl)-4-[5-(trifluoromethyl)-1,2,4-oxadiazol-3-yl]benzamide]
≥ 80%: pest or weed control at 200 ppm (Phakopsora pachyrhizi) | pest or weed control at 200 ppm [1] | inhibition at 20 ppm [2] | pest or weed control at 200 ppm [3]

CC(C)CCNC(=O)c1ccc(-c2noc(C(F)(F)F)n2)cc1 [Compound 3a.38, N-isopentyl-4-[5-(trifluoromethyl)-1,2,4-oxadiazol-3-yl]benzamide]
≥ 80%: pest or weed control at 200 ppm (Phakopsora pachyrhizi) | pest or weed control at 200 ppm [1] | inhibition at 20 ppm [2] | pest or weed control at 200 ppm [3]

CC(C)OCCNC(=O)c1ccc(-c2noc(C(F)(F)F)n2)cc1 [Compound 3a.40, N-(2-isopropoxyethyl)-4-[5-(trifluoromethyl)-1,2,4-oxadiazol-3-yl]benzamide]
≥ 80%: pest or weed control at 200 ppm (Phakopsora pachyrhizi) | pest or weed control at 200 ppm [1] | inhibition at 20 ppm [2] | pest or weed control at 200 ppm [3]

C#CCN(C)C(=O)c1ccc(-c2noc(C(F)(F)F)n2)cc1 [Compound 3a.41, N-methyl-N-prop-2-ynyl-4-[5-(trifluoromethyl)-1,2,4-oxadiazol-3-yl]benzamide]
≥ 80%: pest or weed control at 200 ppm (Phakopsora pachyrhizi) | pest or weed control at 200 ppm [1] | inhibition at 20 ppm [2] | pest or weed control at 200 ppm [3]

CN(CCOC(F)F)C(=O)c1ccc(-c2noc(C(F)(F)F)n2)cc1 [Compound 3a.44, N-[2-(difluoromethoxy)ethyl]-N-methyl-4-[5-(trifluoromethyl)-1,2,4-oxadiazol-3-yl]benzamide]
≥ 80%: pest or weed control at 200 ppm (Phakopsora pachyrhizi) | pest or weed control at 200 ppm [1] | inhibition at 20 ppm [2] | pest or weed control at 200 ppm [3]

CCC(C)NC(=O)c1ccc(-c2noc(C(F)(F)F)n2)cc1F (stereo not shown) [Compound 3b.10, 2-fluoro-N-sec-butyl-4-[5-(trifluoromethyl)-1,2,4-oxadiazol-3-yl]benzamide]
≥ 80%: pest or weed control at 200 ppm (Phakopsora pachyrhizi) | pest or weed control at 200 ppm [1] | inhibition at 20 ppm [2] | pest or weed control at 200 ppm [3]

CCC(COC)NC(=O)c1ccc(-c2noc(C(F)(F)F)n2)cc1F (stereo not shown) [Compound 3b.11, 2-fluoro-N-[1-(methoxymethyl)propyl]-4-[5-(trifluoromethyl)-1,2,4-oxadiazol-3-yl]benzamide]
≥ 80%: pest or weed control at 200 ppm (Phakopsora pachyrhizi) | pest or weed control at 200 ppm [1] | inhibition at 20 ppm [2] | pest or weed control at 200 ppm [3]

CCOC(C)CNC(=O)c1ccc(-c2noc(C(F)(F)F)n2)cc1F (stereo not shown) [Compound 3b.12, N-(2-ethoxypropyl)-2-fluoro-4-[5-(trifluoromethyl)-1,2,4-oxadiazol-3-yl]benzamide]
≥ 80%: pest or weed control at 200 ppm (Phakopsora pachyrhizi) | pest or weed control at 200 ppm [1] | inhibition at 20 ppm [2] | pest or weed control at 200 ppm [3]

CC(C)CN(C)C(=O)c1ccc(-c2noc(C(F)(F)F)n2)cc1F [Compound 3b.14, 2-fluoro-N-isobutyl-N-methyl-4-[5-(trifluoromethyl)-1,2,4-oxadiazol-3-yl]benzamide]
≥ 80%: pest or weed control at 200 ppm (Phakopsora pachyrhizi) | pest or weed control at 200 ppm [1] | inhibition at 20 ppm [2] | pest or weed control at 200 ppm [3]

CC(=O)CC(C)(C)NC(=O)c1ccc(-c2noc(C(F)(F)F)n2)cc1F [Compound 3b.15, N-(1,1-dimethyl-3-oxo-butyl)-2-fluoro-4-[5-(trifluoromethyl)-1,2,4-oxadiazol-3-yl]benzamide]
≥ 80%: pest or weed control at 200 ppm (Phakopsora pachyrhizi) | pest or weed control at 200 ppm [1] | inhibition at 20 ppm [2] | pest or weed control at 200 ppm [3]

CCC(O)CNC(=O)c1ccc(-c2noc(C(F)(F)F)n2)cc1F (stereo not shown) [Compound 3b.16, 2-fluoro-N-(2-hydroxybutyl)-4-[5-(trifluoromethyl)-1,2,4-oxadiazol-3-yl]benzamide]
≥ 80%: pest or weed control at 200 ppm (Phakopsora pachyrhizi) | pest or weed control at 200 ppm [1] | inhibition at 20 ppm [2] | pest or weed control at 200 ppm [3]

COCCN(C)C(=O)c1ccc(-c2noc(C(F)(F)F)n2)cc1F [Compound 3b.19, 2-fluoro-N-(2-methoxyethyl)-N-methyl-4-[5-(trifluoromethyl)-1,2,4-oxadiazol-3-yl]benzamide]
≥ 80%: pest or weed control at 200 ppm (Phakopsora pachyrhizi) | pest or weed control at 200 ppm [1] | inhibition at 20 ppm [2] | pest or weed control at 200 ppm [3]

From US10959432B2, “Microbiocidal oxadiazole derivatives” (Syngenta Participations AG, priority 2016, dated 2021)
